Patent US10588888B2, “CNS-accessible pharmacological chaperones for treatment of acid β-glucosidase-related disease states” (Children's Hospital Medical Center, priority 2017, dated 2020)
Substitutions are numbered along the chain they refer to. Like-named read-outs stand apart in the source and are kept apart here.

What was measured:
[1] = target: T1, GCase (WT fibroblasts) (Mus musculus, UniProt P17439); assay: Immunofluorescence co-localization of GCase and Lamp1 in WT fibroblasts; format: cell-based; settings: vs untreated cells
T1 construct: Fibroblast cells from wild type (WT) and GCase mutant mice; endogenous in cells; host or cells: wild-type mouse fibroblasts
T1 sequence (P17439 20-515): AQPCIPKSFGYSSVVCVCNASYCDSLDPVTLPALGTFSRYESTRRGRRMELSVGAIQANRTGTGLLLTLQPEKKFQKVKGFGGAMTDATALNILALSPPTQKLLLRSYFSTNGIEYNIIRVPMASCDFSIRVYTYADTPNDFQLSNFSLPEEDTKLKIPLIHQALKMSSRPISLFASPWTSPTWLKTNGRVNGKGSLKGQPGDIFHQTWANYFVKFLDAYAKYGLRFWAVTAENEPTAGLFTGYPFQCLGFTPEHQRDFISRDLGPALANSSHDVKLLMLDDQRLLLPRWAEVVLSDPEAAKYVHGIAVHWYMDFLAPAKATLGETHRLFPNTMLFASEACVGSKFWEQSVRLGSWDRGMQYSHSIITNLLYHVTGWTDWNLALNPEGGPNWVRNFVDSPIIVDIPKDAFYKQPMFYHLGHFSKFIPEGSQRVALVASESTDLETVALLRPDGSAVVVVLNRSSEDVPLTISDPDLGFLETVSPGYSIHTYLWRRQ
Protocol: (§1) FIG. 5. Increased GCase protein in lysosomes of mouse fibroblasts treated with M chaperone compounds. (A) GCase (green) was co-stained with lysosomal marker, Lamp1 (red). Co-localization of GCase and Lamp1 (orange) indicates lysosomal localization of GCase.
(§2) Fibroblast cells from wild type (WT) and GCase mutant mice, homozygous V394L/V394L (4L/4L) and 4L/4L/with saposin C−/− (4L;C*) were cultured in 10% Bovine Calf Serum/Dulbecco's Modified Eagle's medium (DMEM). The compounds were dissolved in Dimethyl sulfoxide (DMSO) at 5 mM as a stock solution and stored at −20° C. For cell treatment, the stock was diluted with DMEM and added to cells. The cells were incubated with the compounds for 5 days and changed with fresh media with the compound every two days.
(§3) The cells grown on the chamber slides were fixed in 4% paraformaldehyde for 30 mins, followed by washing twice in Phosphate-buffered saline. The cells were permeablized with 0.3% Triton X-100 in Phosphate-buffered saline and washed with Phosphate-buffered saline for three times. After blocking for 30 min in 1.5% BSA/0.5% gelatin diluted in Phosphate-buffered saline, primary antibody, mouse anti-Lamp1 (1:200) and goat anti-mGCase (1:200) were applied to the cells and incubated overnight at 4° C. The signals were detected using Donkey anti-goat-FITC (1:500) and goat anti-mouse-Texas Red (1:500) to the cognate primary antibody. The stained cells were mounted with antifade containing DAPI.

[2] = test system: MDR1-MDCK cell monolayers; assay: MDR1-MDCK assay, blood-brain-barrier penetration potential; format: in vitro ADME; settings: MDR1-MDCK
Protocol: (§4) MDR1-MDCK cell monolayers were grown to confluence on collagen-coated, microporous membranes in 12-well assay plates. The permeability assay buffer was Hanks' balanced salt solution containing 10 mM HEPES and 15 mM glucose at a pH of 7.4. The buffer in the receiver chamber also contained 1% bovine serum albumin. The dosing solution concentration was 5 μM of test article in the assay buffer. Cell monolayers were dosed on the apical side (A-to-B) or basolateral side (B-toA) and incubated at 37° C. with 5% CO2 in a humidified incubator. Samples were taken from the donor and receiver chambers at 120 minutes. Each determination was performed in duplicate. The flux of lucifer yellow was also measured post-experimentally for each monolayer to ensure no damage was inflicted to the cell monolayers during the flux period. All samples were assayed by LC-MS/MS using electrospray ionization.
(§5) The apparent permeability (Papp) and percent recovery were calculated as follows: Papp=(dCr/dt)×Vr/(A×CA) Percent Recovery=100×((Vr×Cr^final)+(Vd×Cd^final))/(Vd×CN)
(§6) Where, dCr/dt is the slope of the cumulative concentration in the receiver compartment versus time in μM s^−1; Vr is the volume of the receiver compartment in cm^3; Vd is the volume of the donor compartment in cm^3; A is the area of the insert (1.13 cm^2 for 12-well); CA is the average of the nominal dosing concentration and the measured 120 minute donor concentration in μM; CN is the nominal concentration of the dosing solution in μM; Cr final is the cumulative receiver concentration in M at the end of the incubation period; Cd final is the concentration of the donor in M at the end of the incubation period.
(§7) Efflux ratio (ER) is defined as Papp (B-to-A)/Papp (A-to-B).

[3] = test system: MDR1; assay: as above; format: in vitro ADME; settings: dog, 5 μM, 120 minutes
Protocol: as §4, §5, §6, §7

[4] = test system: MDR1 (P-gp); assay: as above; format: in vitro ADME; settings: dog; for Papp A→B at 120 min, 5 μM: MDCK-MDR1, pH 7.4, A to B; for Papp B→A at 120 min, 5 μM: MDCK-MDR1, pH 7.4, B to A
Protocol: as §4, §5, §6, §7

[5] = target: T2, GCase (4L/4L and 4L;C* fibroblasts) (Mus musculus, UniProt P17439, V412L); assay: Immunofluorescence co-localization of GCase and Lamp1 in mutant fibroblasts; format: cell-based; settings: vs untreated cells
T2 construct: Fibroblast cells from wild type (WT) and GCase mutant mice; endogenous in cells; host or cells: mouse fibroblasts from V394L/V394L (4L/4L) and 4L/4L; saposin C-/- (4L;C*) mice
T2 sequence (P17439 20-515 V412L): T1 sequence (P17439 20-515) with V393L
Protocol: as §1, §2, §3

[6] = target: T3, WT GCase (Mus musculus, UniProt P17439); assay: Immunoblot of GCase protein in WT fibroblasts; format: cell-based; settings: 10 μM, 5 days, vs untreated cells
T3 construct: Fibroblast cells from wild type (WT) and GCase mutant mice; endogenous in cells; host or cells: wild-type mouse fibroblasts
T3 sequence (P17439 20-515): T1 sequence (P17439 20-515)
Protocol: as §2
(§8) Cell pellets were collected and washed with Phosphate-buffered saline twice. The pellets were suspended in M-per lysis buffer. Freeze and thaw twice to break down the cell membrane. Protein concentration was determined by the bicinchoninic acid assay. The proteins were resolved on 4-12% NuPAGE gel (Invitrogen) and were transferred to PVDF membrane using iBlot 2 gel transfer device (Life Technologies) following manufactural instruction. The blotted membranes were incubated with Goat anti-mouse GCase (1:1000) in 1.5% BSA/1.5% milk/PBS buffer overnight at 4° C. followed by IRdye Donkey anti-Goat 1:5000. The signals were detected using LI-COR detection system according to manufacturer's instruction.

[7] = target: T4, mutant V394L GCase protein (Mus musculus, UniProt P17439, V412L); assay: Immunoblot of GCase protein in mutant fibroblasts; format: cell-based; settings: 4L/4L and 4L;C* fibroblasts, 10 μM, 5 days, vs untreated cells
T4 construct: Fibroblast cells from wild type (WT) and GCase mutant mice; endogenous in cells; host or cells: mouse fibroblasts from V394L/V394L (4L/4L) and 4L/4L; saposin C-/- (4L;C*) mice
T4 sequence (P17439 20-515 V412L): T1 sequence (P17439 20-515) with V393L
Protocol: as §2, §8

[8] = target: T3, WT GCase; assay: GCase activity in WT fibroblasts treated with compounds; format: cell-based; settings: 5 days, 10 μM, vs untreated cells
Protocol: as §2
(§9) Cell pellets were collected and washed with Phosphate-buffered saline twice. The cell pellets were homogenized in 1% Na-taurocholate/1% Triton X-100 (Tc/Tx). GCase activity was determined fluorometrically with 4MU-Glc as substrate in 0.25% Tc/Tx diluted in 0.1M citrate phosphate (CP) buffer (pH 5.6) as described. Protein concentrations of cells and tissues were determined by BCA assay using BSA as standard.

[9] = target: T5, Mutant GCase (V394L) (Mus musculus, UniProt P17439, V412L); assay: GCase activity in mutant GCase fibroblasts treated with compounds; format: cell-based; settings: for GCase activity (in words): 4L/4L and 4L;C* fibroblasts, 10 μM, vs untreated cells
T5 construct: Fibroblast cells from wild type (WT) and GCase mutant mice; endogenous in cells; host or cells: mouse fibroblasts from V394L/V394L (4L/4L) and 4L/4L; saposin C-/- (4L;C*) mice
T5 sequence (P17439 20-515 V412L): T1 sequence (P17439 20-515) with V393L
Protocol: (§10) FIG. 1. Screen of small molecules with NCGC607 as a positive control. Mutant GCase (V394L) fibroblasts were incubated with small molecules for 5 days at various concentration.
as §2, §9

[10] = target: T6, Recombinant GCase (Homo sapiens, UniProt P04062); assay: Recombinant GCase activity with or without compound; format: biochemical; settings: for Inhibition of GCase (in words): recombinant GCase
T6 sequence (P04062 40-536): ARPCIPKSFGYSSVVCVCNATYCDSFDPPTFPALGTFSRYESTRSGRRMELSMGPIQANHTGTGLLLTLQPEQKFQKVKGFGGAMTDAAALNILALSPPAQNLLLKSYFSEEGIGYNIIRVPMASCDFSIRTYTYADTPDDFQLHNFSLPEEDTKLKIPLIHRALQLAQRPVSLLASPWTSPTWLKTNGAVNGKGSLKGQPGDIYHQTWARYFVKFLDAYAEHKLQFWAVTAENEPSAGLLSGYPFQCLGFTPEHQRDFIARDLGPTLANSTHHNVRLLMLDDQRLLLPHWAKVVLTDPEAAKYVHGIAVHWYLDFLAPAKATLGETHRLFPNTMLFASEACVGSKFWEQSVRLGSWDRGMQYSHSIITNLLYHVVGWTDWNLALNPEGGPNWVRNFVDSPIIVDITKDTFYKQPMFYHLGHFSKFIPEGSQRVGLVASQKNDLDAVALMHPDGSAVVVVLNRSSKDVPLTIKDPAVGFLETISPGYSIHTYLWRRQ
Protocol: FIG. 2. […] Recombinant GCase was incubated with or without compound 216 at various concentration and GCase activity was determined.

[11] = test system: Mutant GCase (V394L) fibroblasts; assay: Toxicity in small molecule screen on mutant GCase fibroblasts; format: cell-based, mouse; settings: 5 days, various concentration
Protocol: as §10, §2

[12] = average, 5 μM, read-out: Papp AVE
[13] = replicate 1, 5 μM, read-out: Papp R1
[14] = replicate 2, 5 μM, read-out: Papp R2

Compound | Lysosomal localization of GCase protein (Pearson index, in words) [1] | Lysosomal localization of GCase protein (Pearson index, in words) [5] | GCase protein levels (in words) [6] | GCase protein levels (in words) [7] | GCase activity (in words) [8] | GCase activity (in words) ([9]; 5 days) | other results
O=C(COc1ccccc1C(=O)NC[C@@H]1CCCO1)Nc1ccc(Br)cc1 [Compound 8, 2-((4-bromophenylcarbamoyl)methyoxy)-N—(((S)-tetrahydrofuran-2-yl)methyl)benzamide] | enhanced | enhanced | increased | increased | Increased | Increased | Brain Penetration Classification [2]: High; Brain Penetration Classification ([2]; listed as #8): high; recovery at 120 min, 5 μM ([3]; MDCK-MDR1, pH 7.4, A to B): 77%; recovery at 120 min, 5 μM ([3]; MDCK-MDR1, pH 7.4, B to A): 86%; Papp A→B at 120 min, 5 μM [4, 12]: 321 nm/s; Papp A→B at 120 min, 5 μM [4, 13]: 334 nm/s; Papp A→B at 120 min, 5 μM [4, 14]: 308 nm/s; Papp B→A at 120 min, 5 μM [4, 12]: 344 nm/s; Papp B→A at 120 min, 5 μM [4, 13]: 318 nm/s; Papp B→A at 120 min, 5 μM [4, 14]: 370 nm/s; efflux ratio at 120 min, 5 μM ([4]; MDCK-MDR1, pH 7.4, Papp (B-to-A)/Papp (A-to-B), P-gp): 1.1; Activity in the mutant GCase fibroblasts assay (comparison of stereoisomers) ([9]; mutant GCase fibroblasts): better activity than Compound 6
O=C(COc1ccccc1C(=O)NCC1CCCO1)Nc1ccc(Br)cc1 (stereo in doubt) [Compound 6, 2-((4-bromophenylcarbamoyl)methoxy)-N(((R)tetrahydrofuran-2-yl)methyl)benzamide] | enhanced | enhanced | increased | increased | Increased | Increased | –
O=C(COc1ccccc1C(=O)NCC1CCCO1)Nc1ccc(Br)cc1 (centres unmarked) [Compound 216] | enhanced | enhanced | increased | increased | Increased | Increased | Inhibition of GCase (in words) [10]: non-inhibitory; AC50 ([10]; recombinant GCase incubated with compound at various concentration, read-out: AC50, activation effect on GCase): 10.1 µM; Inhibition of GCase (in words) ([10]; listed as compound 216): did not inhibit; Toxicity compared to 607 [11]: reduced toxicity; Activation function on GCase compared to NCGC607 ([9]; V394L fibroblasts, 5 days, various concentration): superior
